Data taken from patent US7919488B2, “Therapeutic compounds” (Pfizer Inc., priority 2006, dated 2011).

Tests used:
Format in all cases: biochemical
CYP3A4 [1] = target: T1, CYP3A4 (Homo sapiens, UniProt P08684); assay: IC50 against CYP3A4 by inhibition of testosterone metabolism in human liver microsomes; conditions: 0.1 mg/mL human liver microsomes, 25 μM testosterone, 1 mM NADPH, 6-β-OH-testosterone production, eight minutes; read-out: IC50, μM (HLM, testosterone)
T1 construct: 0.1 mg/mL human liver microsomes; from tissue; host or cells: human liver microsomes
Experimental: 2. Determination of IC50 Against CYP3A4 by Measurement of Inhibition of Testosterone Metabolism
This assay was performed using a standard 96 well plate design. […] Quantitation of metabolite peak area ratio against an internal standard is determined by LC-MS/MS analysis. The production of 6-β-OH-testosterone from testosterone metabolism is determined after incubation for eight minutes by comparison to a standard curve generated for the metabolite
(§1) Samples were analyzed in the MRM mode using a Sciex API 3000 mass spectrometer (Applied Biosystems, Foster City, Calif.) with a Paradigm MS4 binary pump (Michrom BioResources Inc., Auburn, Calif.) and a LEAP CTC PAL autosampler (LEAP Technologies, Carrboro, N.C.). A Phenomenex Synergi, 4μ, Polar-RP, 10×2.0 mm column (Phenomenex, Torrance, Calif.) was used for separation with a mobile phase composition of: 0.1% formic acid in water (A) and: 0.1% formic acid in methanol (B). The following gradient was used: […]
(§2) The sample injection volume was 10 μL and flow was split post-column with 0.4 mL/min going to the mass spectrometer. Analysis was performed using the following API 3000 mass spectrometer settings: […]

CYP3A4 [2] = target: T1, CYP3A4; assay: IC50 against CYP3A4 by inhibition of midazolam metabolism in human liver microsomes; conditions: 0.1 mg/mL human liver microsomes, 2 μM midazolam, 1 mM NADPH, 1-hydroxymidazolam production, eight minutes; read-out: IC50, μM (HLM, midazolam)
Experimental: 3. Determination of IC50 Against CYP3A4 by Measurement of Inhibition of Midazolam Metabolism
This assay was performed using a standard 96 well plate design. […] The incubation substrate mix contains 2 μM midazolam, 0.1 mg/mL human liver microsomes, 1 mM NADPH, and potassium phosphate buffer (100 mM, pH 7.4). Quantitation of metabolite peak area ratio against internal standard is determined by LC-MS/MS analysis. The production of 1-hydroxymidazolam from midazolam metabolism is determined after incubation for eight minutes by comparison to a standard curve generated for the metabolite.
as §1, §2

[3] = target: T2, recombinant CYP3A4-b5 enzyme (Baculosomes®) (Homo sapiens, UniProt P08684); assay: Kiapp against recombinant CYP3A4 enzyme (Baculosomes), BFC substrate; conditions: recombinant CYP3A4-b5 (Invitrogen), 5 uM BFC, 200 uM NADPH, pre-incubation at least 30 minutes, pH 7.0, room temperature
T2 construct: purchased Invitrogen (Carlsbad, Calif.)
Experimental: 1. Determination of Compound Kiapp
A determination of the Kiapp of the compounds of the invention against recombinant CYP3A4 enzyme was performed as follows. The assay was performed in a 100 mM sodium phosphate buffer pH 7.0, 5 mM TCEP and containing 2% dimethylformamide (final concentration) upon addition of substrate and inhibitor. A typical reaction for the determination of Kiapp values was carried at room temperature in a solid black Costar u-bottom 96-well polypropylene plate. […] When pre-incubation was completed (˜30 min), the reaction was initiated by adding NADPH (200 uM, final concentration), and 7-benzyloxy-4-(trifluoromethyl)-coumarin (BFC) (5 uM, final concentration). The oxidation of the coumarin substrate was recorded by a 96-well plate reader POLARstar (BMG LABTECH, Offenburg, Germany).
The initial reaction velocities were measured during the first 5 min of the reaction when the release of the fluorescent product is linear with time, in the absence and in the presence of various concentrations of inhibitors.
The fluorescent substrate BFC was purchased from Sigma (St Louis, Mo.). Two commercial sources of recombinant enzymes were used in this study: recombinant CYP3A4-b5 enzyme (Baculosomes®) was purchased from Invitrogen (Carlsbad, Calif.) and the recombinant CYP3A4+b5 enzyme (Supersomes®) was purchased from BD Biosciences (Woburn, Mass.).

T2 sequence (P08684 whole entry): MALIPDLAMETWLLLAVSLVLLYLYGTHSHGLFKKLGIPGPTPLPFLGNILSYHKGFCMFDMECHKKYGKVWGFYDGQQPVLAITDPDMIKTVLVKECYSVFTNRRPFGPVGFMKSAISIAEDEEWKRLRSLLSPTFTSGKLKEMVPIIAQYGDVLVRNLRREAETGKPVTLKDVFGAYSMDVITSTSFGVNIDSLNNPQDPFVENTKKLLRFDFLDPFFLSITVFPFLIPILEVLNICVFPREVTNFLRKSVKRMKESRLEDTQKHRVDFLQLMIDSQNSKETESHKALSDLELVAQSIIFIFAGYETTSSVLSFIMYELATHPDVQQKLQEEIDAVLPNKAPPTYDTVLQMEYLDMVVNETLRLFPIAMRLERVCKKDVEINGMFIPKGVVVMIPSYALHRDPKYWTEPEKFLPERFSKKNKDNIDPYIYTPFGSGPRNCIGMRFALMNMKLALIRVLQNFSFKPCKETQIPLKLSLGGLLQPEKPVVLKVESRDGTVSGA
T1 sequence (P08684 whole entry): as above

Row | SMILES | IC50 (CYP3A4 [1]) [µM] | IC50 (CYP3A4 [2]) [µM] | Ki [3] [µM]
1 | Cc1noc(Cn2nc(-c3ccncc3)cc2Cc2ccc(F)cc2)n1 [Example 59, 4-{5-(4-fluorobenzyl)-1-[(3-methyl-1,2,4-oxadiazol-5-yl)methyl]-1H-pyrazol-3-yl}pyridine] | 0.0665 | 0.0944 | 0.142
2 | CCc1nc(CNC(=O)Cn2nc(-c3ccncc3)cc2Cc2ccc(F)cc2)no1 [Example 80, N-[(5-ethyl-1,2,4-oxadiazol-3-yl)methyl]-2-[5-(4-fluorobenzyl)-3-pyridin-4-yl-1H-pyrazol-1-yl]acetamide] | 0.065 | 0.064 | 0.0516
3 | CC(C)(O)CNC(=O)Cn1nc(-c2ccncc2)cc1Cc1ccc(F)cc1 [Example 60, 2-[5-(4-fluorobenzyl)-3-pyridin-4-yl-1H-pyrazol-1-yl]-N-(2-hydroxy-2-methylpropyl)acetamide] | 0.032 | 0.02 | 0.0765
4 | CN(C)[C@@H]1CCN(C(=O)Cn2nc(-c3ccncc3)cc2Cc2ccc(F)cc2)C1 [Example 72, (3R)-1-{[5-(4-fluorobenzyl)-3-pyridin-4-yl-1H-pyrazol-1-yl]acetyl}-N,N-dimethylpyrrolidin-3-amine] | 0.026 | 0.026 | 0.226
5 | O=C(Cn1nc(-c2ccncc2)cc1Cc1ccc(F)cc1)NCc1ncc(F)cn1 [Example 81, 2-[5-(4-fluorobenzyl)-3-pyridin-4-yl-1H-pyrazol-1-yl]-N-[(5-fluoropyrimidin-2-yl)methyl]acetamide] | 0.068 | 0.063 | 0.124
6 | O=C(Cn1nc(-c2ccncc2)cc1Cc1ccc(F)cc1)N1CCN(c2ncccn2)CC1 [Example 56, 2-(4-{[5-(4-fluorobenzyl)-3-pyridin-4-yl-1H-pyrazol-1-yl]acetyl}piperazin-1-yl)pyrimidine] | < 0.012 | < 0.012 | 0.0303
7 | CCNC(=O)NC1CCN(C(=O)Cn2nc(-c3ccncc3)cc2Cc2ccc(F)cc2)CC1 [Example 106, 1-ethyl-3-(1-{[5-(4-fluorobenzyl)-3-pyridin-4-yl-1H-pyrazol-1-yl]acetyl}piperidin-4-yl)urea] | 0.023 |  | 0.0782
8 | O=C(Cn1nc(-c2ccncc2)cc1Cc1ccc(F)cc1)N1CCCC(O)C1 (centres unmarked) [Example 76, 1-{[5-(4-fluorobenzyl)-3-pyridin-4-yl-1H-pyrazol-1-yl]acetyl}piperidin-3-ol] | 0.0333 | < 0.0184 | 0.117
9 | CC(C)OC(=O)NC1CCN(C(=O)Cn2nc(-c3ccncc3)cc2Cc2ccc(F)cc2)CC1 [Example 116, isopropyl (1-{[5-(4-fluorobenzyl)-3-pyridin-4-yl-1H-pyrazol-1-yl]acetyl}piperidin-4-yl)carbamate] | 0.008 | < 0.003 | 0.0141
10 | O=C(Cn1nc(-c2ccncc2)cc1Cc1ccc(F)cc1)N1CCNCC1 [Example 62, 1-{[5-(4-fluorobenzyl)-3-pyridin-4-yl-1H-pyrazol-1-yl]acetyl}piperazine] | 0.111 | 0.047 | 0.604
11 | CCC(=O)NC1CCN(C(=O)Cn2nc(-c3ccncc3)cc2Cc2ccc(F)cc2)CC1 [Example 101, N-(1-(2-[5-(4-fluorobenzyl)-3-pyridin-4-yl-1H-pyrazol-1-yl]acetyl}piperidin-4-yl)propanamide] | 0.035 | 0.0105 | 0.158
12 | Cc1nnc(Cn2nc(-c3ccncc3)cc2Cc2ccc(F)cc2)o1 [Example 28, 4-{5-(4-fluorobenzyl)-1-[(5-methyl-1,3,4-oxadiazol-2-yl)methyl]-1H-pyrazol-3-yl}pyridine] | 0.0305 | 0.0792 | 0.608
13 | CN1CCN(C(=O)Cn2nc(-c3ccncc3)cc2Cc2ccc(F)cc2)CC1 [Example 61, 1-{[5-(4-fluorobenzyl)-3-pyridin-4-yl-1H-pyrazol-1-yl]acetyl}-4-methylpiperazine] | 0.038 | 0.016 | 0.134
14 | O=C(NC1CCN(C(=O)Cn2nc(-c3ccncc3)cc2Cc2ccc(F)cc2)CC1)C1CCC1 [Example 18, N-(1-{2-[5-(4-fluorobenzyl)-3-pyridin-4-yl-1H-pyrazol-1-yl]acetyl}piperidin-4-yl)cyclobutanecarboxamide] | 0.018 |  | 0.0706
15 | O=C(Cn1nc(-c2ccncc2)cc1Cc1ccc(F)cc1)N1CC(O)C1 [Example 98, 1-{[5-(4-fluorobenzyl)-3-pyridin-4-yl-1H-pyrazol-1-yl]acetyl}azetidin-3-ol] | 0.082 | 0.108 | 0.378
16 | O=C(Cn1nc(-c2c[nH]cn2)cc1Cc1ccc(F)cc1)N1CCN(c2ncccn2)CC1 [Example 108, 2-(4-{[5-(4-fluorobenzyl)-3-(1H-imidazol-4-yl)-1H-pyrazol-1-yl]acetyl}piperazin-1-yl)pyrimidine] | 0.241 |  | 0.0881
17 | COC(=O)NC1CCN(C(=O)Cn2nc(-c3ccncc3)cc2Cc2ccc(F)cc2)CC1 [Example 105, methyl (1-{[5-(4-fluorobenzyl)-3-pyridin-4-yl-1H-pyrazol-1-yl]acetyl}piperidin-4-yl)carbamate] | 0.036 |  | 0.055
18 | O=C(Cn1nc(-c2ccncc2)cc1Cc1ccc(F)cc1)NCCc1cnccn1 [Example 78, 2-[5-(4-fluorobenzyl)-3-pyridin-4-yl-1H-pyrazol-1-yl]-N-(2-pyrazin-2-ylethyl)acetamide] | 0.04 |  | 0.0834
19 | CC(C)NC1CCN(C(=O)Cn2nc(-c3ccncc3)cc2Cc2ccc(F)cc2)CC1 [Example 9, 1-{[5-(4-fluorobenzyl)-3-pyridin-4-yl-1H-pyrazol-1-yl]acetyl}-N-isopropylpiperidin-4-amine] | 0.056 |  | 0.202
20 | OCCn1nc(-c2ccncc2)cc1Cc1ccc(F)cc1 [Example 29, 2-[5-(4-fluorobenzyl)-3-pyridin-4-yl-1H-pyrazol-1-yl]ethanol] | 0.054 |  | 0.159
21 | CNC(=O)NC1CCN(C(=O)Cn2nc(-c3ccncc3)cc2Cc2ccc(F)cc2)CC1 [Example 107, 1-(1-{[5-(4-fluorobenzyl)-3-pyridin-4-yl-1H-pyrazol-1-yl]acetyl}piperidin-4-yl)-3-methylurea] | 0.029 |  | 0.165
22 | COC(=O)Cn1nc(-c2ccncc2)cc1Cc1ccc(F)cc1 [Example 2, methyl [5-(4-fluorobenzyl)-3-pyridin-4-yl-1H-pyrazol-1-yl]acetate] | 0.956 |  | 0.13
23 | C[C@H](CO)NC(=O)Cn1nc(-c2ccncc2)cc1Cc1ccc(F)cc1 [Example 94, 2-[5-(4-fluorobenzyl)-3-pyridin-4-yl-1H-pyrazol-1-yl]-N-[(1R)-2-hydroxy-1-methylethyl]acetamide] | 0.022 |  | 0.112
24 | CCS(=O)(=O)N(C)C1CCN(C(=O)Cn2nc(-c3ccncc3)cc2Cc2ccc(F)cc2)CC1 [Example 110, N-(1-{[5-(4-fluorobenzyl)-3-pyridin-4-yl-1H-pyrazol-1-yl]acetyl}piperidin-4-yl)-N-methylethane-sulfonamide] | 0.016 |  | 0.0158
25 | CC(C)C(=O)NC1CCN(C(=O)Cn2nc(-c3ccncc3)cc2Cc2ccc(F)cc2)CC1 [Example 104, N-(1-{[5-(4-fluorobenzyl)-3-pyridin-4-yl-1H-pyrazol-1-yl]acetyl}piperidin-4-yl)-2-methylpropanamide] | 0.046 |  | 0.106
26 | CC(=O)N(C)C1CCN(C(=O)Cn2nc(-c3ccncc3)cc2Cc2ccc(F)cc2)CC1 [Example 109, N-(1-{[5-(4-fluorobenzyl)-3-pyridin-4-yl-1H-pyrazol-1-yl]acetyl}piperidin-4-yl)-N-methylacetamide] | 0.036 |  | 0.0643
